Assay results from PubChem BioAssay (NCI).
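Briefly, cells in 96-well plates were exposed to five compound concentrations for 48 h, and endpoints were estimated by linear interpolation. GI50: concentration for 50% inhibition of growth. At the TGI there is no net growth.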

Tests used:
Assay in all cases: DTP human tumour cell line panel, 48 h
SW-620 colon = system: SW-620 colon
OVCAR-5 ovarian = system: OVCAR-5 ovarian
NCI-H23 lung = system: NCI-H23 lung
SK-MEL-28 melanoma = system: SK-MEL-28 melanoma
SNB-75 CNS = system: SNB-75 CNS
NCI-H522 lung = system: NCI-H522 lung
SK-MEL-2 melanoma = system: SK-MEL-2 melanoma
A549 NSCLC = system: A549 NSCLC
K-562 leukemia = system: K-562 leukemia
RPMI-8226 leukemia = system: RPMI-8226 leukemia
COLO 205 colon = system: COLO 205 colon
PC-3 prostate = system: PC-3 prostate
SK-MEL-5 melanoma = system: SK-MEL-5 melanoma
SK-OV-3 ovarian = system: SK-OV-3 ovarian
HOP-62 NSCLC = system: HOP-62 NSCLC
SF-268 CNS = system: SF-268 CNS
ACHN renal = system: ACHN renal
CCRF-CEM leukemia = system: CCRF-CEM leukemia
SN12C renal = system: SN12C renal
U251 CNS = system: U251 CNS
NCI/ADR-RES ovarian = system: NCI/ADR-RES ovarian
NCI-H460 lung = system: NCI-H460 lung
M14 melanoma = system: M14 melanoma
HS 578T breast = system: HS 578T breast
HCT-116 colon = system: HCT-116 colon
TK-10 renal = system: TK-10 renal
NCI-H226 lung = system: NCI-H226 lung
LOX IMVI melanoma = system: LOX IMVI melanoma
MOLT-4 leukemia = system: MOLT-4 leukemia
HOP-92 NSCLC = system: HOP-92 NSCLC
EKVX NSCLC = system: EKVX NSCLC
IGROV1 ovarian = system: IGROV1 ovarian
SNB-19 CNS = system: SNB-19 CNS
MCF7 breast = system: MCF7 breast
MDA-MB-468 breast = system: MDA-MB-468 breast
OVCAR-3 ovarian = system: OVCAR-3 ovarian
HT29 colon = system: HT29 colon
HL-60(TB) leukemia = system: HL-60(TB) leukemia
A498 renal = system: A498 renal
BT-549 breast = system: BT-549 breast
786-0 renal = system: 786-0 renal
UACC-257 melanoma = system: UACC-257 melanoma
OVCAR-8 ovarian = system: OVCAR-8 ovarian
HCC-2998 colon = system: HCC-2998 colon
KM12 colon = system: KM12 colon
HCT-15 colon = system: HCT-15 colon
T-47D breast = system: T-47D breast
DU-145 prostate = system: DU-145 prostate
SF-539 CNS = system: SF-539 CNS
RXF 393 renal = system: RXF 393 renal
UACC-62 melanoma = system: UACC-62 melanoma
MDA-MB-435 = system: MDA-MB-435
MALME-3M melanoma = system: MALME-3M melanoma
SF-295 CNS = system: SF-295 CNS
OVCAR-4 ovarian = system: OVCAR-4 ovarian
CAKI-1 renal = system: CAKI-1 renal

Compound: O=C(c1ccccc1)n1ccc(-c2cc3cc(Br)ccc3oc2=O)n1
- GI50 (SW-620 colon): 5.15 µM
- TGI (SW-620 colon): > 100 µM
- GI50 (OVCAR-5 ovarian): 13.9 µM
- TGI (OVCAR-5 ovarian): > 100 µM
- GI50 (NCI-H23 lung): 5.87 µM
- TGI (NCI-H23 lung): > 100 µM
- GI50 (SK-MEL-28 melanoma): 6.05 µM
- TGI (SK-MEL-28 melanoma): > 100 µM
- GI50 (SNB-75 CNS): 7.09 µM
- TGI (SNB-75 CNS): > 100 µM
- GI50 (NCI-H522 lung): 3.36 µM
- TGI (NCI-H522 lung): 17 µM
- GI50 (SK-MEL-2 melanoma): 5.6 µM
- TGI (SK-MEL-2 melanoma): 74.7 µM
- GI50 (A549 NSCLC): 12.6 µM
- TGI (A549 NSCLC): > 100 µM
- GI50 (K-562 leukemia): 3.59 µM
- TGI (K-562 leukemia): > 100 µM
- GI50 (RPMI-8226 leukemia): 3.8 µM
- TGI (RPMI-8226 leukemia): > 100 µM
- GI50 (COLO 205 colon): 19.1 µM
- TGI (COLO 205 colon): 73.6 µM
- GI50 (PC-3 prostate): 4.05 µM
- TGI (PC-3 prostate): > 100 µM
- GI50 (SK-MEL-5 melanoma): 4.14 µM
- TGI (SK-MEL-5 melanoma): 23.6 µM
- GI50 (SK-OV-3 ovarian): 6.08 µM
- TGI (SK-OV-3 ovarian): 62.5 µM
- GI50 (HOP-62 NSCLC): 3.48 µM
- TGI (HOP-62 NSCLC): > 100 µM
- GI50 (SF-268 CNS): 4.29 µM
- TGI (SF-268 CNS): > 100 µM
- GI50 (ACHN renal): 3.94 µM
- TGI (ACHN renal): > 100 µM
- GI50 (CCRF-CEM leukemia): 1.52 µM
- TGI (CCRF-CEM leukemia): 15.6 µM
- GI50 (SN12C renal): 6.28 µM
- TGI (SN12C renal): > 100 µM
- GI50 (U251 CNS): 4.82 µM
- TGI (U251 CNS): > 100 µM
- GI50 (NCI/ADR-RES ovarian): 4.13 µM
- TGI (NCI/ADR-RES ovarian): 81.3 µM
- GI50 (NCI-H460 lung): 3.78 µM
- TGI (NCI-H460 lung): > 100 µM
- GI50 (M14 melanoma): 3.94 µM
- TGI (M14 melanoma): 24 µM
- GI50 (HS 578T breast): 17.5 µM
- TGI (HS 578T breast): > 100 µM
- GI50 (HCT-116 colon): 3.52 µM
- TGI (HCT-116 colon): > 100 µM
- GI50 (TK-10 renal): 47.5 µM
- TGI (TK-10 renal): > 100 µM
- GI50 (NCI-H226 lung): 7.23 µM
- TGI (NCI-H226 lung): 62.1 µM
- GI50 (LOX IMVI melanoma): 2.8 µM
- TGI (LOX IMVI melanoma): 90.9 µM
- GI50 (MOLT-4 leukemia): 3.32 µM
- TGI (MOLT-4 leukemia): 9.55 µM
- GI50 (HOP-92 NSCLC): 0.545 µM
- TGI (HOP-92 NSCLC): > 100 µM
- GI50 (EKVX NSCLC): 2.7 µM
- TGI (EKVX NSCLC): > 100 µM
- GI50 (IGROV1 ovarian): 5.48 µM
- TGI (IGROV1 ovarian): > 100 µM
- GI50 (SNB-19 CNS): 9.97 µM
- TGI (SNB-19 CNS): > 100 µM
- GI50 (MCF7 breast): 2.74 µM
- TGI (MCF7 breast): > 100 µM
- GI50 (MDA-MB-468 breast): 3.6 µM
- TGI (MDA-MB-468 breast): 25.2 µM
- GI50 (OVCAR-3 ovarian): 2.06 µM
- TGI (OVCAR-3 ovarian): > 100 µM
- GI50 (HT29 colon): 16.5 µM
- TGI (HT29 colon): > 100 µM
- GI50 (HL-60(TB) leukemia): 2.09 µM
- TGI (HL-60(TB) leukemia): 5.49 µM
- GI50 (A498 renal): > 100 µM
- TGI (A498 renal): > 100 µM
- GI50 (BT-549 breast): 5.18 µM
- TGI (BT-549 breast): 78 µM
- GI50 (786-0 renal): 3.99 µM
- TGI (786-0 renal): > 100 µM
- GI50 (UACC-257 melanoma): 4 µM
- TGI (UACC-257 melanoma): 30.2 µM
- GI50 (OVCAR-8 ovarian): 2.73 µM
- TGI (OVCAR-8 ovarian): 51.6 µM
- GI50 (HCC-2998 colon): 5.29 µM
- TGI (HCC-2998 colon): > 100 µM
- GI50 (KM12 colon): 4.45 µM
- TGI (KM12 colon): > 100 µM
- GI50 (HCT-15 colon): 2.88 µM
- TGI (HCT-15 colon): > 100 µM
- GI50 (T-47D breast): 6.22 µM
- TGI (T-47D breast): 70.9 µM
- GI50 (DU-145 prostate): 8.9 µM
- TGI (DU-145 prostate): > 100 µM
- GI50 (SF-539 CNS): 7.44 µM
- TGI (SF-539 CNS): 67.3 µM
- GI50 (RXF 393 renal): 6.18 µM
- TGI (RXF 393 renal): > 100 µM
- GI50 (UACC-62 melanoma): 3.55 µM
- TGI (UACC-62 melanoma): 22.9 µM
- GI50 (MDA-MB-435): 14.7 µM
- TGI (MDA-MB-435): > 100 µM
- GI50 (MALME-3M melanoma): 5.9 µM
- TGI (MALME-3M melanoma): > 100 µM
- GI50 (SF-295 CNS): 8.91 µM
- TGI (SF-295 CNS): > 100 µM
- GI50 (OVCAR-4 ovarian): 4.56 µM
- TGI (OVCAR-4 ovarian): > 100 µM
- GI50 (CAKI-1 renal): 4.16 µM
- TGI (CAKI-1 renal): > 100 µM
